Where “and” joins values, the source holds several entries; their conditions need not be identical. Identical values can stand only once. Entries after “also recorded” stand apart in the source; their conditions may differ.
What was measured:
[1] = biological target: T1, rat PFTase (Rattus norvegicus, UniProt Q02293+Q04631); test: Inhibition of farnesyl transferase (fluorescence assay); format: biochemical; details: mean ± SD of three independent experiments
T1 construct: purchased Jena Biosciences
Experimental: The assay was carried out in 384-well microplates with a final volume of 20 μl by the method modified from the previous report (Long et al., 2009). Briefly, 10 nM of rat PFTase (Jena Biosciences, Jena, Germany) was incubated with the tested compound or DMSO (1%) for 15 min, and then the mixture was added in a solution (50 mM Tris-HCl, pH 7.5, 5 mM MgCl2, 5 mM DTT, 0.1 mM ZnCl2, 0.2% octyl-β-D-glucopyranoside (Sigma, St. Louis, Mo.), 10 μM PFTase substrate dansyl-Gly-Cys-Val-Leu-Ser-OH, and 10 μM farnesyl pyrophosphate (Sigma, St. Louis, Mo.)) to initiate the reaction. The reaction was incubated at 37° C. for 30 min, and the fluorescence was detected by a M5 plate reader (Molecular Devices, CA, USA) at 340 nm excitation and 505 nm emission.

[2] = system: dendritic cells; test: Morphology of dendritic cells by Liu's staining; format: cell-based, human; details: 10 μM, seven days, FIG. 8
Experimental: (§1) Mononuclear cells (MNCs) were separated from the peripheral blood of healthy donors obtained with written consent by use of Ficoll-Hypaque density centrifugation, followed by positive selection with magnetic anti-CD14 microbeads.
(§2) The isolated CD14^+ cells were cultivated in Minimum Essential Medium (MEM medium) supplemented with 10% fetal bovine serum (FBS), 100 ng/ml granulocyte-macrophage colony-stimulating factor (GM-CSF, Gentaur), and 50 ng/ml interleukin-4 (IL-4, R&D), and kept in an environment of 37° C. with 5% CO2/95% air.
(§3) To evaluate the effects of the present compound on dendritic cells, the CD14^+ cells were respectively treated with 10 μM of test compound (i.e., Mib-5, Mib-6, Mib-7, Mib-8, Mib-9, and Mib-10) on day 1. Then, on day 3, the cultured medium in each well was replenished by adding half the volume of the cultured medium containing the same treatment as indicated above. Then, on day 6, a cytokine cocktail containing IL-1, IL-6, and tumor necrosis factor-α (TNF-α) was added to induce maturation. On day 7, the differentiated dendritic cells were collected and subjected to further assays, including viability assay, morphology observation, and cell marker staining.
(§4) Cells were transferred to a glass coverslide and covered with solution A (0.5 g of methylene blue and 1.7 g of Eosin yellow dissolved in 1,000 ml of ethanol). After 45 seconds, solution B (1.3 g of azure, 1.4 g of methylene blue, 23.38 g of Na2HPO4, 6.5 g of KH2PO4, dissolved in 1,000 ml of distilled water) was added in the proportion of 2 parts of B to 1 part of A. Mixed the solutions well by blowing the surface. The slide was left standing for 90 seconds and then washed off the staining solution rapidly by running water. The morphology of stained cells was then examined under microscope.
(§5) In this example, the effects of the present compounds on dendritic cells were investigated. Briefly, the dendritic cells were respectively treated with 10 μM of Mib-5, Mib-6, Mib-7, Mib-8, or Mib-10. Seven days later, the cells were harvested and subjected to analysis of morphology observation, cell viability, and/or cell marker expression.

[3] = system: macrophages; test: Cell marker expression on macrophages (total), flow cytometry; format: cell-based, human; details: for total expressed level of CD14: FIG. 3; for level of CD206: FIG. 5; for total level of CD80: compared with the control
Experimental: as §1, §2, §3
(§6) As to the effects of the present compound on macrophages, the CD14^+ cells were cultivated and treated as indicated above except the addition of cytokine cocktail on day 6. The macrophages were collected on day 6 and subjected to further assays, including viability assay, trypan blue exclusion test, morphology observation, cell marker staining, and phagocytotic activity analysis.
(§7) The expression of various types of cell markers, such as CD14, CD206, and CD80 expressed on the surface of macrophages, and CD1a, CD14, CD83, and HLA-DR expressed on the dendritic cells, were respectively detected by fluorescein isothiocyanate (FITC) and phycoerythrin (PE)-conjugated monoclonal antibodies in FACS caliber flowcytometer. Monoclonal antibodies used in this examples included anti-CD14 (IgG-FITC), anti-CD206 (IgG-FITC), anti-CD80-PE, anti-CD1a-PE, anti-CD83-PE and anti-human leukocyte antigen (HLA)-DR-PE. Results were analyzed by CellQuest software.

[4] = system: dendritic cells; test: Cell marker expression on dendritic cells, flow cytometry; format: cell-based, human; details: 10 μM; for expression of CD1a, differentiation marker of dendritic cells: FIG. 9; for expression of CD83, maturation marker of dendritic cells: FIG. 10
Experimental: as §1, §2, §3, §7, §5

[5] = system: dendritic cells; test: Trypan blue exclusion analysis of dendritic cells; format: cell-based, human; details: 10 μM, seven days, FIG. 7
Experimental: as §1, §2, §3
(§8) The dye exclusion test is used to determine the number of viable cells present in a cell suspension. […] In this test, the cells were first treated with a test compound (i.e., Mib-5, 6, 7, 8, 9 or 10) for a certain period of time (e.g., 72 hours), then the cells were harvested and re-suspended in suitable buffer solution. The cell suspension was then mixed with trypan blue dye and then visually examined to determine whether cells had taken up or excluded the dye. A viable cell will have a clear cytoplasm, whereas a nonviable cell will have a blue cytoplasm. The concentration required to reduce viability by 50% (IC50) after 72 hours was extrapolated from the dose-response curves by different concentrations of the test compound using a second-order polynomial regression model and analyzing with SigmaPlot Software (Systat Software Inc., San Jose, Calif.).
as §5

[6] = system: M1 macrophages; test: Differentiation analysis, cell viability of M1 macrophages; format: cell-based, human; details: for Cell viability of M1 macrophages: LPS-induced M1 differentiation, 6 days, control 100%
Experimental: (§9) M1 differentiation of freshly isolated CD14^+ cells was induced by the addition of lipopolysaccharide (LPS), while M2 differentiation of freshly isolated CD14^+ cells was induced by the addition of IL-4. Then, the present compounds (e.g., Mib-5, 6, 7, 8, 9, or 10) were added at the indicated dosages. 6 days later, the population of the differentiated macrophages were then determined by cell viability analysis. The cell viability was measured by cell counting kit-8 (CCK-8, Sigma). The half maximal inhibitory concentrations (IC50) of the test compounds on macrophages or dendritic cells were calculated.

[7] = system: M1 macrophages; test: Cell marker expression on M1 macrophages, flow cytometry; format: cell-based, human; details: for CD14: M1 population after treatment: Table 5; for CD80: change in M1 population: Table 6; for CD206: change in M1: Table 7; for CD206 expression on M1 macrophages: control 14.27%; for CD80 expression on M1 macrophages: control 71.34%; for CD14 expression on M1 macrophages: control 99.83%
Experimental: as §9, with “analysis.” for “analysis. The cell viability was measured by cell counting kit-8 (CCK-8, Sigma). The half maximal inhibitory concentrations (IC50) of the test compounds on macrophages or dendritic cells were calculated.”
as §7

[8] = system: M2 macrophages; test: Cell marker expression on M2 macrophages, flow cytometry; format: cell-based, human; details: for CD14: M2 population after treatment: Table 5; for CD80 expression on M2 macrophages: control 47.64%; for CD14 expression on M2 macrophages: control 55.66%; for CD206 expression on M2 macrophages: control 74.49%; for CD80: change in M2 population: Table 6
Experimental: as §9, with “analysis.” for “analysis. The cell viability was measured by cell counting kit-8 (CCK-8, Sigma). The half maximal inhibitory concentrations (IC50) of the test compounds on macrophages or dendritic cells were calculated.”
as §7

[9] = system: macrophages; test: Phagocytosis assay with fluorescent latex beads; format: cell-based, human; details: M1 and/or M2 populations, FIG. 6
Experimental: as §6
The phagocytic activity of macrophages was measured by using flow cytometric analysis. The green fluorescent latex beads (carboxylate-modified beads with diameter 2 μm) were suspended in PBS solution and added into macrophage culture for 2 hours with vortexa at 37° C. The macrophages were subjected to flow cytometry for measurement of fluorescent intensity

[10] = system: macrophages; test: Morphology of macrophages (photographs, Liu's staining); format: cell-based, human; details: for morphology of cells by Liu's staining compared with control cells: FIG. 1 panel C; for cells exhibiting adhesive morphology: FIG. 1 panel A
Experimental: as §1, §2, §3, §6, §4

[11] = system: M2 macrophages; test: Differentiation analysis, cell viability of M2 macrophages; format: cell-based, human; details: for Cell viability of M2 macrophages: IL-4-induced M2 differentiation, 6 days, control 100%
Experimental: as §9

[12] = system: macrophages; test: Trypan blue exclusion test on macrophages; format: cell-based; details: trypan blue analysis, FIG. 2
Experimental: as §1, §2, §3, §6, §8

| Structure (SMILES) | IC50 [1] | dendritic cell morphology compared with control group [2] | total expressed level of CD14 [3] | level of CD206 [3] | total level of CD80 [3] | expression of CD1a, differentiation marker of dendritic cells [4] | expression of CD83, maturation marker of dendritic cells [4] | levels of viable dendritic cells [5] | Cell viability of M1 macrophages [6] [%] | CD14: M1 population after treatment [7] | CD206 expression on M1 macrophages [7] [%] | CD80 expression on M1 macrophages [7] [%] | CD14 expression on M1 macrophages [7] [%] | CD14: M2 population after treatment [8] | CD80 expression on M2 macrophages [8] [%] | CD14 expression on M2 macrophages [8] [%] | CD206 expression on M2 macrophages [8] [%] | phagocytic activity compared with control [9] | morphology of cells by Liu's staining compared with control cells [10] | Cell viability of M2 macrophages [11] [%] | further results |
| --- | --- | --- | --- | --- | --- | --- | --- | --- | --- | --- | --- | --- | --- | --- | --- | --- | --- | --- | --- | --- | --- |
| CSCC[C@H](NC(=O)c1ccc(NC(=O)[C@@H](N)CS)cc1)C(=O)O [FTase Inhibitor II, reference compound] | 0.13 ± 0.03 µM |  |  |  |  |  |  |  |  |  |  |  |  |  |  |  |  |  |  |  |  |
| COC1=CC(=O)[C@@]2(c3cc(=O)c4c(O)cc(OC)cc4o3)[C@H](C[C@]3(C)[C@@H](C(=O)O)CC=C4[C@H]3CCCC4(C)C)C(C)=CC[C@H]2C1=O [Mib-6] | < 10 µM and 4.97 µM | cell death reflected in morphology changes, and less dendritic process | not affected | increase | significantly reduced | inhibited | inhibited | reduced | 57.2 | remained relatively unchanged | 4.52 | 6.59 | 86.43 | significant decrease | 41.4 | 91.25 | 77.78 | not | not significantly affected | 90.6 | change in M1 population of macrophages compared with control ([6]; Table 4): significant reduction; CD80: change in M1 population [7]: reduction; CD206: change in M1 [7]: significant decrease; CD206: change in M2 ([8]; Table 7): increase; morphology and adhesion of treated macrophages ([10]; 10 μM, FIG. 1 panel B): became rounded up, and were less adhesive; change in M2 population of macrophages compared with control ([11]; Table 4): slight decrease; cell viability / cytotoxicity toward macrophages [12]: slight toxicity; also recorded: no significant cytotoxicity |
| COC1=CC(=O)[C@@]2(c3cc(=O)c4c(O)cc(O)cc4o3)[C@H](CC=C(C)[C@@H]2C[C@]2(C)[C@@H](C(=O)O)CC=C3[C@H]2CCCC3(C)C)C1=O [Mib-8] | < 10 µM and 5.05 µM | did not cause any significant changes | not affected | increase | increased | not | not affected | remained relatively unchanged | 79.4 | remained relatively unchanged | 11.98 | 60.16 | 99.73 | significant decrease | 56.66 | 62.34 | 51.05 | reduced | not significantly affected | 100 | increase of total level of CD80 as compared with the control [3]: about 2 folds; reduction in the M1 population ([6]; compared with control, Table 4): about 20%; CD80: change in M1 population [7]: reduction; CD206: change in M1 [7]: significant decrease; CD80: change in M2 population [8]: increase; cells exhibiting adhesive morphology ([10]; 10 μM): about 20%; change in M2 population of macrophages compared with control ([11]; Table 4): no effect; cell viability / cytotoxicity toward macrophages [12]: did not adversely affect cell viability; also recorded: no significant cytotoxicity |
| COC1=CC(=O)[C@@]2(c3cc(=O)c4ccc(O)cc4o3)[C@H](C[C@]3(C)[C@@H](C(=O)O)CC=C4[C@H]3CCCC4(C)C)C(C)=CC[C@H]2C1=O [Mib-9] | ~47 µM and 47 µM |  |  |  |  |  |  |  |  |  |  |  |  |  |  |  |  |  |  |  |  |
| COC1=CC(=O)[C@@]2(c3cc(=O)c4ccc(O)cc4o3)[C@H](CC=C(C)[C@@H]2C[C@]2(C)[C@@H](C(=O)O)CC=C3[C@H]2CCCC3(C)C)C1=O [Mib-10] | ~28 µM and 27.9 µM | did not cause any significant changes | not affected | increase | increased | not | not affected | remained relatively unchanged | 82.5 | remained relatively unchanged | 15.17 | 84.46 | 99.10 | significant decrease | 59.89 | 57.93 | 68.80 | reduced | not significantly affected | 145.5 | increase of total level of CD80 as compared with the control [3]: about 2 folds; change in M1 population of macrophages compared with control ([6]; Table 4): decrease; CD80: change in M2 population [8]: increase; cells exhibiting adhesive morphology ([10]; 10 μM): about 20%; increase of M2 population ([11]; compared with control, Table 4): about 40%; cell viability / cytotoxicity toward macrophages [12]: did not adversely affect cell viability; also recorded: no significant cytotoxicity |

Reference: US10745370B2, “Farnesyl transferase inhibitors and uses thereof” (MACKAY MEMORIAL HOSPITAL, priority 2016, dated 2020)
